The target of the assay is T1, proTNF-α convertase enzyme (TACE) (Homo sapiens, UniProt P78536).
T1 construct: a partially purified, isolated enzyme assay, the enzyme being obtained from the membranes of THP-1; endogenous in cells; host or cells: THP-1 cell membranes, partially purified as in Mohler et al. (1994) Nature 370:218-220
Briefly: Isolated enzyme assay, proTNF-α convertase (TACE), fluorescent peptide substrate. Type of assay: biochemical. The settings on record: partially purified enzyme from membranes of THP-1; 26° C. for 4 hours; read-out: concentration giving 50% inhibition of TACE. The protocol:
Recombinant human proMMP13 may be expressed and purified as described by Knauper et al. [V. Knauper et al., (1996) […] 271:1544-1550 (1996)]. […] Activity is determined by measuring the fluorescence at λex 328 nm and λem 393 nm. Percent inhibition is calculated as follows: % Inhibition is equal to the [Fluorescenceplus inhibitor−Fluorescencebackground] divided by the [Fluorescenceminus inhibitor−Fluorescencebackground].
The ability of the compounds to inhibit proTNF-α convertase enzyme (TACE) may be assessed using a partially purified, isolated enzyme assay, the enzyme being obtained from the membranes of THP-1 as described by K. M. Mohler et al., (1994) Nature 370:218-220. The purified enzyme activity and inhibition thereof is determined by incubating the partially purified enzyme in the presence or absence of test compounds using the substrate 4′,5′-Dimethoxy-fluoresceinyl Ser.Pro.Leu.Ala.Gln.Ala.Val.Arg.Ser.Ser.Ser.Arg.Cys(4-(3-succinimid-1-yl)-fluorescein)-NH2 in assay buffer (50 mM Tris HCl, pH 7.4 containing 0.1% (w/v) Triton X-100 and 2 mM CaCl2), at 26° C. for 4 hours. The amount of inhibition is determined as for MMP13 except λex 485 nm and λem 538 nm were used. […]

T1 sequence (P78536 215-824): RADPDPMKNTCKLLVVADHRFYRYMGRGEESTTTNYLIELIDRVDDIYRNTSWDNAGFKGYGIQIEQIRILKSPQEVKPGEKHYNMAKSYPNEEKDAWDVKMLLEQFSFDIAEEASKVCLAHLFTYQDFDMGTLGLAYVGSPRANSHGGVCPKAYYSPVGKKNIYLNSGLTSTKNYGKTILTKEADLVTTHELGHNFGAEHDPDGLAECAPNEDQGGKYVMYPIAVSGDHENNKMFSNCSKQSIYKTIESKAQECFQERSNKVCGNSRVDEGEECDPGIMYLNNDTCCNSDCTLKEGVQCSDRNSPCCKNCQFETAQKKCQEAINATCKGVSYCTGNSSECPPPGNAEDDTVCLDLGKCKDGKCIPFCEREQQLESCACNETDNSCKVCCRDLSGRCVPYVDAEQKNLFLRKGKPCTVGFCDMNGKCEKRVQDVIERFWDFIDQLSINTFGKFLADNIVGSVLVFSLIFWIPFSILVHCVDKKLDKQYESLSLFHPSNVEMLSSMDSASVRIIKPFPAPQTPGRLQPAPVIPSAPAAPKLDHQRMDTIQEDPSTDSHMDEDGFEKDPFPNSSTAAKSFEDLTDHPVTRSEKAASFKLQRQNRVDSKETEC

In the case of `Cc1cc(COc2ccc(NS(=O)(=O)CC3(C)NC(=O)NC3=O)cc2)c2ccccc2n1` (centres unmarked) [Example 1A, 1-(4-methyl-2,5-dioxoimidazolidin-4-yl)-N-{4-[(2-methylquinolin-4-yl)methoxy]phenyl}methanesulphonamide], the IC50 was 0.071 µM. Regarding `CCC1(CS(=O)(=O)Nc2ccc(OCc3cc(C)nc4ccccc34)cc2)NC(=O)NC1=O` (centres unmarked) [Example 2A, 1-(4-ethyl-2,5-dioxoimidazolidin-4-yl)-N-{4-[(2-methylquinolin-4-yl)methoxy]phenyl}methanesulphonamide], the IC50 came out at 0.037 µM.

The values above are taken from patent US20050256176A1, “Sulphonamide derivatives and their use as tace inhibitors” (priority 2002, published 2005).
